Data on four molecules can be found in patent US8604009B2, “(20S)-2-methylene-19-nor-22-dimethyl-1α,25-dihydroxyvitamin D3 and (20R)-2-methylene-19-nor-22-dimethyl-1α,25-hydroxyvitamin D3” (Wisconsin Alumni Research Foundation, priority 2010, dated 2013).

The term Ki denotes a dissociation constant, usually derived from enzyme kinetics or from competition with a known ligand. The melting point is the temperature, or range, at which the solid turns liquid.

Series [1] has as its system 24-hydroxylase (24-OHase) gene promoter in ROS 17/2.8 (bone) cells. The series is described as follows: In vitro transcription assay (24-hydroxylase promoter luciferase reporter). The format is cell-based. As to the method: Transcription activity was measured in ROS 17/2.8 (bone) cells that were stably transfected with a 24-hydroxylase (24-Ohase) gene promoter upstream of a luciferase reporter gene (Arbour et al., Analytical Biochem. (1998) 255(1):148-154). Cells were given a range of doses. Sixteen hours after dosing the cells were harvested and luciferase activities were measured using a luminometer. RLU=relative luciferase units.
(In a reporter assay the amount or activity of a reporter protein is the signal.)

For series [2], the system named is bone calcium mobilization. Description: Bone calcium mobilization (serum calcium). To be noted: at 780 pM dosage. Type of series: in vivo, rat. As to the method:
(§1) Male, weanling Sprague-Dawley rats were placed on Diet 11 (0.47% Ca) diet+AEK oil for one week followed by Diet 11 (0.02% Ca)+AEK oil for 3 weeks. The rats were then switched to a diet containing 0.47% Ca for one week followed by two weeks on a diet containing 0.02% Ca. Dose administration began during the last week on 0.02% calcium diet. Four consecutive intraperitoneal doses were given approximately 24 hours apart. Twenty-four hours after the last dose, blood was collected from the severed neck and the concentration of serum calcium determined as a measure of bone calcium mobilization. The first 10 cm of the intestine was also collected for intestinal calcium transport analysis using the everted gut sac method.

For series [3], the target named is T1, full-length recombinant rat vitamin D receptor (Rattus norvegicus, UniProt P13053).
T1 construct: Full-length recombinant rat receptor was expressed in E. coli BL21(DE3) Codon Plus RIL cells; histidine tag (C); made in house; host or cells: E. coli BL21(DE3) Codon Plus RIL
T1 sequence (P13053 1-423): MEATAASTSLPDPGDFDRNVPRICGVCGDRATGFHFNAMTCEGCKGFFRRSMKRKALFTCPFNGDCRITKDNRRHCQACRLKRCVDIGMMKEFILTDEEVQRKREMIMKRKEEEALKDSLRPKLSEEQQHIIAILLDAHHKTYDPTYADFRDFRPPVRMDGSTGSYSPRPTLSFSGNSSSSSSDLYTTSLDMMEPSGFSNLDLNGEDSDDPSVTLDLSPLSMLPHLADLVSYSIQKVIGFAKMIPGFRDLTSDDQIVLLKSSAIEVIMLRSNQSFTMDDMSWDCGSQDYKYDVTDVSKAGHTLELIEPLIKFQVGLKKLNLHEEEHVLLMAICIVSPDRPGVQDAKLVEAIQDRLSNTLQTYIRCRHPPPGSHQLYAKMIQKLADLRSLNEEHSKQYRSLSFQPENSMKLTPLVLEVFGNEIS
The series is described as follows: Competitive vitamin D receptor binding. To be noted: for binding to the nuclear vitamin D receptor compared with 1,25(OH)2D3: in words. As to the method: The first system was a nickel affinity resin that utilizes the C-terminal histidine tag on this protein. The protein that was eluted from this resin was further purified using ion exchange chromatography (S-Sepharose Fast Flow). Aliquots of the purified protein were quick frozen in liquid nitrogen and stored at −80° C. until use. For use in binding assays, the protein was diluted in TEDK50 (50 mM Tris, 1.5 mM EDTA, pH 7.4, 5 mM DTT, 150 mM KCl) with 0.1% Chaps detergent. The receptor protein and ligand concentration was optimized such that no more than 20% of the added radiolabeled ligand was bound to the receptor.
Radiolabeled and unlabeled ligands were added to 100 μL of the diluted protein at a final ethanol concentration of ≦10%, mixed and incubated overnight on ice to reach binding equilibrium. The following day, 100 μL of hydroxylapatite slurry (50%) was added to each tube and mixed at 10-minute intervals for 30 minutes. The hydroxylapaptite was collected by centrifugation and then washed three times with Tris-EDTA buffer (50 mM Tris, 1.5 mM EDTA, pH 7.4) containing 0.5% Titron X-100. After the final wash, the pellets were transferred to scintillation vials containing 4 mL of Biosafe II scintillation cocktail, mixed and placed in a scintillation counter. Total binding was determined from the tubes containing only radiolabeled ligand.

Series [4] relates to intestinal calcium transport. The series is described as follows: Intestinal calcium transport (everted gut sac). The format is in vivo, rat. The settings on record: for Net Intestinal Ca2+ Transport (S/M): S/M = serosal Ca2+/mucosal Ca2+, at 780 pM dosage; for intestinal calcium transport activity compared with 1,25(OH)2D3: rat gut, in words. As to the method: as §1
In a further series the test system is HL-60 cells. The series is described as follows: HL-60 differentiation (nitro blue tetrazolium reduction). The format is cell-based, human. As to the method: The study drugs were dissolved in ethanol and the concentrations determined using UV spectrophotometry. Serial dilutions were prepared so that a range of drug concentrations could be tested without changing the final concentration of ethanol (≦0.2%) present in the cell cultures.
Human promyelocytic leukemia (HL60) cells were grown in RPMI-1640 medium containing 10% fetal bovine serum. The cells were incubated at 37° C. in the presence of 5% CO2.
HL60 cells were plated at 1.2×10^5 cells/mL. Eighteen hours after plating, cells in duplicate were treated with drug. Four days later, the cells were harvested and a nitro blue tetrazolium reduction assay was performed (Collins et al., J. Exp. Med. (1979) 149:969-974). The percentage of differentiated cells was determined by counting a total of 200 cells and recording the number that contained intracellular black-blue formazan deposits.

The target in series [5] is T1, full-length recombinant rat vitamin D receptor. To be noted: data from U.S. Pat. No. 5,843,928 and J. Med. Chem. 1998, 41, 4662; read-out: Competitive VDR Binding (Ki); cited from earlier work.
Where [6] appears, read: competition with 3H-1,25(OH)2D3, read-out: Ki, binding to the recombinant vitamin D receptor.

The structures appear in SMILES notation. “Also recorded” adds a separate entry of the source. Read-outs that look alike come from different tables or passages of the source.

Molecule `C=C1C(O)CC(=CC=C2CCCC3(C)C2CCC3C(C)C(C)(C)CCC(C)(C)O)CC1O` [MET-2, (20R)-2-methylene-19-nor-22-dimethyl-1α,25-dihydroxyvitamin D3] registered a melting point of 154 °C. For the same molecule, in series [1] (ROS 17/2.8 cells, 16 hours, read-out: concentration stimulating 24-OHase gene expression in bone cells), the EC50 is 0.03 nM. In addition, the EC50 in series [1] (present compounds, read-out: 24-OHase Transcription (EC50)) was determined as 0.6 nM. In series [1] (relative to 1,25(OH)2D3), the “potency in 24-hydroxylase gene transcription, times more potent than 1,25(OH)2D3” value is reported as “about three” and the “potency in stimulating 24-OHase gene expression, times less potent than 1,25(OH)2D3” value was “about 3 times”. The “Net Bone Ca2+ Mobilization” value in series [2] is 0.2 mg/dL. Also, the Ki in series [3] (setting [6]) amounted to 0.05 nM. For the same molecule, in series [3], the “binding to the nuclear vitamin D receptor compared with 1,25(OH)2D3” value is “equally effective as 1,25-(OH)2D3; also recorded: same affinity as 1,25(OH)2D3”. Also, the Ki in series [3] (present compounds, read-out: Competitive VDR Binding (Ki)) came to 0.05 nM. In series [4], the “Net Intestinal Ca2+ Transport (S/M)” value was 1.2 S/M and the “intestinal calcium transport activity compared with 1,25(OH)2D3” value is listed as “noticeably less active than 1,25-(OH)2D3; also recorded: less potent than 1,25(OH)2D3”. Further, the EC50 in the series with HL-60 cells (HL-60 cells, 4 days, read-out: concentration inducing the differentiation of HL-60 cells in culture) came out at 0.7 nM. Further, the EC50 in the series with HL-60 cells (Homo sapiens, HL-60, present compounds, read-out: HL-60 Differentiation (EC50)) was found to be 1 nM.
On to `C=C1C(O)CC(=CC=C2CCCC3(C)C2CCC3C(C)C(C)(C)CCC(C)(C)O)CC1O` [MET-1, (20S)-2-methylene-19-nor-22-dimethyl-1α,25-dihydroxyvitamin D3], for which the EC50 in series [1] (16 h, ROS 17/2.8 cells, 16 hours, read-out: concentration stimulating 24-OHase gene expression in bone cells) came to 0.03 nM; in the series with HL-60 cells (Homo sapiens, HL-60, 96 h, HL-60 cells, 4 days, read-out: concentration inducing the differentiation of HL-60 cells in culture) it was 0.7 nM; in the series with HL-60 cells (present compounds, read-out: HL-60 Differentiation (EC50)) it was 0.7 nM. In addition, the “Net Bone Ca2+ Mobilization” value in series [2] is 0.4 mg/dL. Moreover, the Ki in series [3] (setting [6]) stood at 0.04 nM. In addition, in series [3], the “binding to the nuclear vitamin D receptor compared with 1,25(OH)2D3” value was “approximately equally effective as 1,25-(OH)2D3; also recorded: same affinity as 1,25(OH)2D3”. The “Net Intestinal Ca2+ Transport (S/M)” value in series [4] is on record as 2.3 S/M. In addition, the “intestinal calcium transport activity compared with 1,25(OH)2D3” value in series [4] is on record as “noticeably less active than 1,25-(OH)2D3; also recorded: less potent than 1,25(OH)2D3”.
Turning to `C=C1C(O)CC(=CC=C2CCCC3(C)C2CCC3C(C)CCCC(C)(C)O)CC1O` [2MD (20S), 2-methylene-19-nor-1α,25-dihydroxyvitamin D3], in series [5], the Ki was 0.1 nM.
Take `C=C1C(O)CC(=CC=C2CCCC3(C)C2CCC3C(C)CCCC(C)(C)O)CC1O` [2MD (20R)]: the inhibition constant Ki in series [5] was 0.12 nM.
